From publication PMC4701174, “Novel Characteristics of Trypanosoma brucei Guanosine 5'-monophosphate Reductase Distinct from Host Animals” (PLoS Neglected Tropical Diseases, 2016)
Values belong to the molecule of their own block, whether it stands above or below them.

Legend:
[1] = target: T1, T. brucei guanosine 5'-monophosphate reductase (TbGMPR) (Trypanosoma brucei, UniProt Q57ZS7); assay: NADPH consumption at […] nm, Hill fit; type: biochemical
T1 construct: gene Tb05.1P6.110; recombinant TbGMPR coding region, GST fusion in E. coli, tag cleaved with PreScission protease

[2] = target: T2, HsGMPR1 (human GMPR type 1) (Homo sapiens, UniProt P36959); assay: NADPH consumption at […] nm, Hill fit; type: biochemical
T2 construct: recombinant
T2 sequence (P36959 1-345): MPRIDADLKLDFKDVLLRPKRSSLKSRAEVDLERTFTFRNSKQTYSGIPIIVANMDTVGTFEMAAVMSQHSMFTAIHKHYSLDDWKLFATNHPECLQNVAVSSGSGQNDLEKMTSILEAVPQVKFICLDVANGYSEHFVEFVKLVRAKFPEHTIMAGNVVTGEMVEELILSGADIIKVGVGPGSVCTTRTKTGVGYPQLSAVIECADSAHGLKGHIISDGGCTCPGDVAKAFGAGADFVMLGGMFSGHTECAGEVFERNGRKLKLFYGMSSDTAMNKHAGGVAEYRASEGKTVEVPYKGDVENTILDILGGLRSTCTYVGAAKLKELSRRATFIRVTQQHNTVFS

[3] = target: T3, HsGMPR2 (human GMPR type 2) (Homo sapiens, UniProt Q9P2T1); assay: NADPH consumption at […] nm, Hill fit; type: biochemical
T3 construct: gene GMPR2; recombinant
T3 sequence (Q9P2T1 1-348): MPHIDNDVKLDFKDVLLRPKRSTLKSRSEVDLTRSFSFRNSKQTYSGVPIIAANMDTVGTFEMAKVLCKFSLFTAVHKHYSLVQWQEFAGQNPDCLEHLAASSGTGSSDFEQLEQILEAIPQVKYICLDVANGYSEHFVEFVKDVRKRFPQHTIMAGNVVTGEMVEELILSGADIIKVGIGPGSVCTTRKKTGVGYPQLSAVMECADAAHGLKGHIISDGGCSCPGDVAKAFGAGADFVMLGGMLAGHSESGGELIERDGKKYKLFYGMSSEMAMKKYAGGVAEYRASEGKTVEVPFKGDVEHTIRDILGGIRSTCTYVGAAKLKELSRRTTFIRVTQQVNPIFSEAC

[4] = target: T1, T. brucei guanosine 5'-monophosphate reductase (TbGMPR); assay: NADPH consumption at […] nm, Lineweaver-Burk, competitive inhibition fit (IC50 […]); type: biochemical
purified protein [5] = substrate: NC(=O)C1=CN([C@@H]2O[C@H](COP(=O)(O)OP(=O)(O)OC[C@H]3O[C@@H](n4cnc5c(N)ncnc54)[C@H](OP(=O)(O)O)[C@@H]3O)[C@@H](O)[C@H]2O)C=CC1; assay: purified protein; type: biochemical, Trypanosoma brucei; conditions: varied: cofactor
purified protein [6] = substrate: Nc1nc2c(ncn2[C@@H]2O[C@H](COP(=O)(O)O)[C@@H](O)[C@H]2O)c(=O)[nH]1; assay: purified protein; type: biochemical, Trypanosoma brucei; conditions: NADPH
purified protein [7] = substrate: Nc1nc2c(ncn2[C@@H]2O[C@H](COP(=O)(O)O)[C@@H](O)[C@H]2O)c(=O)[nH]1; assay: purified protein; type: biochemical, Homo sapiens; conditions: NADPH
purified protein [8] = substrate: NC(=O)C1=CN([C@@H]2O[C@H](COP(=O)(O)OP(=O)(O)OC[C@H]3O[C@@H](n4cnc5c(N)ncnc54)[C@H](OP(=O)(O)O)[C@@H]3O)[C@@H](O)[C@H]2O)C=CC1; assay: purified protein; conditions: varied: cofactor

B1: T. brucei guanosine 5'-monophosphate reductase (TbGMPR) (Trypanosoma brucei brucei TREU927) (protein)
chain: MSFNESASIPTGLTYDDVLIIPQHSRVTSRKEVNTTTRLSRNVKLSIPIVASNMDTVCEQRMAVAMAREGGIGILHRFCSIEEQCAMLREVKRAQSFLIESPRIILPHETAREAWEGLNWKGRVGGVGCLLVVNCKNERKLLGIITRHDLKLADESTTVESLMTPVDKMVVSTNTSISLEEVTHLMRKGRTANVPIVGQNGQLLYLVTLSDVVKLRKNKQASLDSRGRLLVGAAVGVKKDDMNRAIRLVEAGADVLVVDIAHGHSDLCINMVKRLKGDPRTASVDIIAGNIASAEAAEALIDAGADGLKIGVGPGSICITRLVAGAGVPQLSAVLACTRVARRRGVPCIADGGLRTSGDISKAIGAGADTVMLGNMLAGTDEAPGRVLVKDGQKVKIIRGMAGFGANLSKAERERTQDEDVFSSLVPEGVEGSVACKGPVGPIVRQLVGGLRSGMSYSGAKSIEEMQRRTRFVRMTGAGLRESGSHGVAKL
notes: recombinant TbGMPR coding region, GST fusion in E. coli, tag cleaved with PreScission protease
- Km (purified protein [5]): 12.3 ± 0.8 µM
- Km (purified protein [6]): 89.3 ± 9.0 µM

B2: HsGMPR1 (human GMPR type 1) (Homo sapiens) (protein)
chain: T2 sequence (P36959 1-345)
notes: recombinant
- Km (purified protein [7]): 22.1 ± 2.2 µM
- Km (purified protein [8]): 34.8 ± 4.3 µM

Results, then the molecule that gave them:

- IC50 [1]: 23.7 ± 1.9 µM
- IC50 [2]: 120 ± 16.1 µM
- IC50 [3]: 69.3 ± 7.8 µM
Molecule: NC(=O)c1ncn([C@@H]2O[C@H](COP(=O)(O)O)[C@@H](O)[C@H]2O)c1O [MZP, mizoribine 5’-monophosphate]

- Ki [4]: 4.46 ± 0.46 µM
Molecule: NC(=O)c1ncn([C@@H]2O[C@H](COP(=O)(O)O)[C@@H](O)[C@H]2O)n1 [RMP, ribavirin 5'-monophosphate]
